According to US12391686B2, “Compounds and uses thereof” (Foghorn Therapeutics Inc., priority 2019, dated 2025):
pIC50: −log10 of the molar value.

Target: T1, Nanoluciferase-BRD9 fusion protein (3×FLAG-NLuc-BRD9) in SYO-1 cells (Homo sapiens, UniProt Q9H8M2)
T1 construct: expressed in transfected cells; host or cells: SYO-1
T1 sequence (Q9H8M2 1-597): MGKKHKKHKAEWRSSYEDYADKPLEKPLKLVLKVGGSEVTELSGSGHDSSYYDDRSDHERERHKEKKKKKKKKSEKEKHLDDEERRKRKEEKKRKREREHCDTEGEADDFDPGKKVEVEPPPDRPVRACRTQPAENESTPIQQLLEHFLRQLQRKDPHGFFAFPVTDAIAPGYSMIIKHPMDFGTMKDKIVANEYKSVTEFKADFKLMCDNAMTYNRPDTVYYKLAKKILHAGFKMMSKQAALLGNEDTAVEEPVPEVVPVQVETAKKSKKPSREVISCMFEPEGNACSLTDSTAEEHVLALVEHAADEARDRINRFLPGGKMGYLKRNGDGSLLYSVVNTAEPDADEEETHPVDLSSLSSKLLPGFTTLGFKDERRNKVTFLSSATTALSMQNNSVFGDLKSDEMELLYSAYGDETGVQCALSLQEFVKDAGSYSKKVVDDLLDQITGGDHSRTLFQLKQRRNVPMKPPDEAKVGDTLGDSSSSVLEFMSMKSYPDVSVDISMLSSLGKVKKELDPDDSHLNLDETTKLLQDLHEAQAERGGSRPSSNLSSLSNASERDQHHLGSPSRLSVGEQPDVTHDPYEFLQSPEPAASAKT
Test: SYO1 BRD9 NanoLuc Degradation Assay
Assay type: cell-based
Settings: 6 hours; SYO-1 cells expressing 3×FLAG-NLuc-BRD9; top dose 1 μM; read-out: SYO1 BRD9-NanoLuc degradation IC50
How it was run: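 Stable 3×FLAG-NLuc-BRD9 SYO-1 line, 8000 cells/well, dosed day 1 with 10-point 3-fold dilutions (1 μM final top, duplicates) for 6 h. NanoLuc bioluminescence read with Nano-Glo; % inhibition relative to DMSO (high) and 1 μM reference BRD9 degrader (low) controls.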

Compound	DC50
COc1cc(-c2cn(C)c(=O)c3cnc(N(C)C)cc23)cc(OC)c1CN1CC(C(=O)NCCCCCOc2cccc3c2C(=O)N(C2CCC(=O)NC2=O)C3=O)C1 (stereo not shown) [Compound D1, 1-([4-[6-(dimethylamino)-2-methyl-1-oxo-1,2-dihydro-2,7-naphthyridin-4-yl]-2,6-dimethoxyphenyl]methyl)-N-(5-[[2-(2,6-dioxopiperidin-3-yl)-1,3-dioxo-2,3-dihydro-1H-isoindol-4-yl]oxy]pentyl)azetidine-3-carboxamide]	< 0.01 µM
COc1cc(-c2cn(C)c(=O)c3cnc(N(C)C)cc23)cc(OC)c1CN1CC[C@H]1CN(C)Cc1cccc2c1C(=O)N(C1CCC(=O)NC1=O)C2=O (stereo partly drawn) [Compound D2, 4-(((((S)-1-(4-(6-(dimethylamino)-2-methyl-1-oxo-1,2-dihydro-2,7-naphthyridin-4-yl)-2,6-dimethoxybenzyl)azetidin-2-yl)methyl)(methyl)amino)methyl)-2-(2,6-dioxopiperidin-3-yl)isoindoline-1,3-dione]	≥ 0.1 µM
COc1cc(-c2cn(C)c(=O)c3cnc(N(C)C)cc23)cc(OC)c1CN1CC(N(C)Cc2cccc3c2C(=O)N(C2CCC(=O)NC2=O)C3=O)C1 (stereo not shown) [Compound D3, 4-([[1-([4-[6-(dimethylamino)-2-methyl-1-oxo-2,7-naphthyridin-4-yl]-2,6-dimethoxyphenyl]methyl)azetidin-3-yl](methyl)amino]methyl)-2-(2,6-dioxopiperidin-3-yl)isoindole-1,3-dione formic acid]	≥ 0.01 µM
COc1cc(-c2cn(C)c(=O)c3cnc(N(C)C)cc23)cc(OC)c1CN1CC[C@H]1C(=O)N(C)Cc1cccc2c1C(=O)N(C1CCC(=O)NC1=O)C2=O (stereo partly drawn) [Compound D4, (2S)-1-(4-(6-(dimethylamino)-2-methyl-1-oxo-1,2-dihydro-2,7-naphthyridin-4-yl)-2,6-dimethoxybenzyl)-N-((2-(2,6-dioxopiperidin-3-yl)-1,3-dioxoisoindolin-4-yl)methyl)-N-methylazetidine-2-carboxamide formic acid]	≥ 0.1 µM

Same assay, conditions: Table 6C; SYO-1 cells expressing 3×FLAG-NLuc-BRD9, 6 hours incubation, 1 μM top dose; read-out: SYO1 BRD9-NanoLuc degradation IC50

Compound	DC50
COc1cc(-c2cn(C)c(=O)c3cnc(C4CC4)cc23)cc(OC)c1CN1CC(Oc2ccc3c(c2)C(=O)N(C2CCC(=O)NC2=O)C3)C1 (stereo not shown) [Compound D300]	< 0.01 µM
COc1cc(-c2cn(C)c(=O)c3cnc(C4CC4)cc23)cc(OC)c1CN1CCC(CN2CCC3(CC2)CC(Oc2ccc4c(c2)C(=O)N(C2CCC(=O)NC2=O)C4=O)C3)CC1 (stereo not shown) [Compound D301]	< 0.01 µM
COc1cc(-c2cn(C)c(=O)c3cnc(C4CC4)cc23)cc(OC)c1CN1CCC(CN2CCC3(CC2)CC(Oc2ccc4c(c2)C(=O)N(C2CCC(=O)NC2=O)C4)C3)CC1 (stereo not shown) [Compound D302]	< 0.01 µM
COc1cc(-c2cn(C)c(=O)c3cnc(C4CC4)cc23)cc(OC)c1CN1CC(CN2CCC3(CC2)CN(c2ccc4c(c2)C(=O)N(C2CCC(=O)NC2=O)C4=O)C3)C1 (stereo not shown) [Compound D303]	< 0.01 µM
COc1cc(-c2cn(C)c(=O)c3cnc(C4CC4)cc23)cc(OC)c1CN1CCC(CCN2CCN(c3ccc4c(c3)C(=O)N(C3CCC(=O)NC3=O)C4=O)CC2)CC1 (stereo not shown) [Compound D304]	< 0.01 µM
COc1cc(-c2cn(C)c(=O)c3cnc(C4CC4)cc23)cc(OC)c1CN1CCC(CCN2CCN(c3ccc4c(c3)C(=O)N(C3CCC(=O)NC3=O)C4)CC2)CC1 (stereo not shown) [Compound D305]	< 0.01 µM
[2H]C([2H])([2H])n1cc(-c2cc(OC)c(CN3CC(CN4CCC5(CC4)CN(c4ccc6c(c4)C(=O)N(C4CCC(=O)NC4=O)C6=O)C5)C3)c(OC)c2)c2cc(C3CC3)ncc2c1=O (stereo not shown) [Compound D306]	< 0.01 µM
[2H]C([2H])([2H])n1cc(-c2cc(OC)c(CN3CCC(CN4CCC5(CC4)CC(Oc4ccc6c(c4)C(=O)N(C4CCC(=O)NC4=O)C6=O)C5)CC3)c(OC)c2)c2cc(C3CC3)ncc2c1=O (stereo not shown) [Compound D307]	< 0.01 µM
COc1cc(-c2cn(C)c(=O)c3cnc(C4COC4)cc23)cc(OC)c1CN1CCN(CCC2CCN(c3ccc4c(c3)C(=O)N(C3CCC(=O)NC3=O)C4=O)CC2)CC1 (stereo not shown) [Compound D308]	< 0.01 µM
COc1cc(-c2cn(C)c(=O)c3cnc(C(F)(F)F)cc23)cc(OC)c1CN1CCN(CCC2CCN(c3ccc4c(c3)CN(C3CCC(=O)NC3=O)C4=O)CC2)CC1 (stereo not shown) [Compound D309]	< 0.01 µM
COc1cc(-c2cn(C)c(=O)c3cnc(N4CCC4)cc23)cc(OC)c1CN1CCC2(CC1)CN(c1ccc3c(c1)CN(C1CCC(=O)NC1=O)C3=O)C2 (stereo not shown) [Compound D310]	< 0.01 µM
COc1cc(-c2cn(C)c(=O)c3cnc(N4CCC4)cc23)cc(OC)c1CN1CC(CN2CCC3(CC2)CN(c2ccc4c(c2)C(=O)N(C2CCC(=O)NC2=O)C4)C3)C1 (stereo not shown) [Compound D311]	< 0.01 µM
COc1cc(-c2cn(C)c(=O)c3cnc(N4CCC4)cc23)cc(OC)c1CN1CCC(c2ccc3c(c2)CN(C2CCC(=O)NC2=O)C3=O)CC1 (stereo not shown) [Compound D312]	< 0.01 µM
COc1cc(-c2cn(C)c(=O)c3cnc(N4CCC4)cc23)cc(OC)c1CN1CCC(c2ccc3c(c2)C(=O)N(C2CCC(=O)NC2=O)C3)CC1 (stereo not shown) [Compound D313]	< 0.01 µM
COc1cc(-c2cn(C)c(=O)c3cnc(N4CCOCC4)cc23)cc(OC)c1CN1CC(Oc2ccc3c(c2)CN(C2CCC(=O)NC2=O)C3=O)C1 (stereo not shown) [Compound D314]	< 0.01 µM
COc1cc(-c2cn(C)c(=O)c3cnc(C(C)(C)CO)cc23)cc(OC)c1CN1CCC(CN2CCC3(CC2)CC(Oc2ccc4c(c2)CN(C2CCC(=O)NC2=O)C4=O)C3)CC1 (stereo not shown) [Compound D315]	< 0.01 µM
COc1cc2c(-c3cc(OC)c(CN4CC(CN5CCC6(CC5)CN(c5ccc7c(c5)C(=O)N(C5CCC(=O)NC5=O)C7)C6)C4)c(OC)c3)cn(C)c(=O)c2cn1 (stereo not shown) [Compound D316]	< 0.01 µM

Target: T2, BRD9 bromodomain (Flag-BRD9 P133-K239; Swiss Prot Q9H8M2) (Homo sapiens, UniProt Q9H8M2)
T2 construct: His-Flag-BRD9 (P133-K239); Swiss Prot Q9H8M2; His6 with TEV site (mgsshhhhhhenlyfq/) (N, cleaved yes); made in house
T2 sequence (Q9H8M2 133-239): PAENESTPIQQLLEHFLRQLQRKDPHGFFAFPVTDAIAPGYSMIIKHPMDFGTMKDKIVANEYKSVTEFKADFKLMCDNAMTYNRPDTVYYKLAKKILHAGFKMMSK
Test: BRD9 Bromodomain TR-FRET Competition Binding Assay
Settings: competition with biotinylated BRD9 ligand; 90 minutes at room temperature
Protocol: Procedure: His-Flag-BRD9 (P133-K239; Swiss Prot Q9H8M2; SEQ ID NO:1 mgsshhhhhhenlyfq/gdykddddkgslevlfqg/[…] […]) was cloned, expressed, purified, and then treated with TEV protease. Cleaved His tag was removed by purification. The binding of a biotinylated small molecule ligand of BRD9 was assessed via the LANCE® TR-FRET platform (PerkinElmer), and the compounds were assayed for inhibitory activity against this interaction.
Results: A mixture of biotinylated-ligand and SureLight™ Allophycocyanin-Streptavidin (APC-SA, PerkinElmer AD0201) in 50 mM HEPES (pH 7.4), 50 mM NaCl, 1 mM TCEP (pH 7), 0.01% (v/v) Tween-20, 0.01% (w/v) bovine serum albumin was added to a white 384-well PerkinElmer Proxiplate Plus plate. DMSO or 3-fold serially diluted compounds were then added to the Proxiplate followed by addition of Flag-BRD9. After a 10-minute incubation at room temperature, Eu-W1024 anti-FLAG (PerkinElmer, AD0273) was added. The final reaction mixture that contained 3.75 nM biotinylated ligand, 3 nM Flag-BRD9, 7.5 nM SureLight™ Allophycocyanin-Streptavidin, and 0.2 nM Eu-W1024 anti-FLAG was incubated at room temperature for 90 minutes.
The plates were then read on a PerkinElmer Envision plate reader to determine the ratio of emission at 665 nm over 615 nm. […]

Compound	pIC50
CNc1cc2c(-c3cc(OC)c(CN(C)C)c(OC)c3)cn(C)c(=O)c2cn1 [Compound B1, 4-[4-[(dimethylamino)methyl]-3,5-dimethoxyphenyl]-2-methyl-6-(methylamino)-1,2-dihydro-2,7-naphthyridin-1-one]	> 8.00
COc1cc(-c2cn(C)c(=O)c3cnc(N(C)C)cc23)cc(OC)c1CN(C)C [Compound B2, 6-(dimethylamino)-4-[4-[(dimethylamino)methyl]-3,5-dimethoxyphenyl]-2-methyl-1,2-dihydro-2,7-naphthyridin-1-one]	> 8.00
CNc1cc2c(=O)n(C)cc(-c3cc(OC)c(CN(C)C)c(OC)c3)c2cn1 [Compound B3, 4-[4-[(Dimethylamino)methyl]-3,5-dimethoxyphenyl]-2-methyl-7-(methylamino)-1,2-dihydro-2,6-naphthyridin-1-one]	≤ 8.00
COc1cc(-c2cn(C)c(=O)c3cnc(N)cc23)cc(OC)c1CN(C)C [Compound B4, 6-amino-4-[4-[(dimethylamino)methyl]-3,5-dimethoxyphenyl]-2-methyl-1,2-dihydro-2,7-naphthyridin-1-one]	≤ 8.00
COc1cc(-c2cn(C)c(=O)c3cc(N)ncc23)cc(OC)c1CN(C)C [Compound B5, 7-amino-4-(4-((dimethylamino)methyl)-3,5-dimethoxyphenyl)-2-methyl-2,6-naphthyridin-1(2H)-one]	≤ 8.00
COc1cc(-c2cn(C)c(=O)c3cc(NCC(=O)N(C)C)ncc23)cc(OC)c1CN(C)C [Compound B6, 2-[(8-[4-[(dimethylamino)methyl]-3,5-dimethoxyphenyl]-6-methyl-5-oxo-2,6-naphthyridin-3-yl)amino]-N,N-dimethylacetamide formic acid]	≤ 8.00
COc1cc(-c2cn(C)c(=O)c3cnc(N(C)C)cc23)cc(OC)c1CN1CC(C(=O)NCCCCCOc2cccc3c2C(=O)N(C2CCC(=O)NC2=O)C3=O)C1 (stereo not shown) [Compound D1, 1-([4-[6-(dimethylamino)-2-methyl-1-oxo-1,2-dihydro-2,7-naphthyridin-4-yl]-2,6-dimethoxyphenyl]methyl)-N-(5-[[2-(2,6-dioxopiperidin-3-yl)-1,3-dioxo-2,3-dihydro-1H-isoindol-4-yl]oxy]pentyl)azetidine-3-carboxamide]	> 8.00
COc1cc(-c2cn(C)c(=O)c3cnc(N(C)C)cc23)cc(OC)c1CN1CC[C@H]1CN(C)Cc1cccc2c1C(=O)N(C1CCC(=O)NC1=O)C2=O (stereo partly drawn) [Compound D2, 4-(((((S)-1-(4-(6-(dimethylamino)-2-methyl-1-oxo-1,2-dihydro-2,7-naphthyridin-4-yl)-2,6-dimethoxybenzyl)azetidin-2-yl)methyl)(methyl)amino)methyl)-2-(2,6-dioxopiperidin-3-yl)isoindoline-1,3-dione]	> 8.00
COc1cc(-c2cn(C)c(=O)c3cnc(N(C)C)cc23)cc(OC)c1CN1CC(N(C)Cc2cccc3c2C(=O)N(C2CCC(=O)NC2=O)C3=O)C1 (stereo not shown) [Compound D3, 4-([[1-([4-[6-(dimethylamino)-2-methyl-1-oxo-2,7-naphthyridin-4-yl]-2,6-dimethoxyphenyl]methyl)azetidin-3-yl](methyl)amino]methyl)-2-(2,6-dioxopiperidin-3-yl)isoindole-1,3-dione formic acid]	> 8.00
COc1cc(-c2cn(C)c(=O)c3cnc(N(C)C)cc23)cc(OC)c1CN1CC[C@H]1C(=O)N(C)Cc1cccc2c1C(=O)N(C1CCC(=O)NC1=O)C2=O (stereo partly drawn) [Compound D4, (2S)-1-(4-(6-(dimethylamino)-2-methyl-1-oxo-1,2-dihydro-2,7-naphthyridin-4-yl)-2,6-dimethoxybenzyl)-N-((2-(2,6-dioxopiperidin-3-yl)-1,3-dioxoisoindolin-4-yl)methyl)-N-methylazetidine-2-carboxamide formic acid]	> 8.00
